Earlier results, collected in US20220079896A1, “DELAYED RELEASE COMPOSITIONS” (AMNEAL COMPLEX PRODUCTS RESEARCH LLC, priority 2020, published 2022).

SMILES	mean single-dose terminal elimination half-life
NC(=O)C[S@@+]([O-])C(c1ccccc1)c1ccccc1 [Armodafinil, (−)-2-[(R)-(diphenylmethyl)sulfinyl] acetamide]	approximately 13 hours
NC(=O)C[S+]([O-])C(c1ccccc1)c1ccccc1 (centres unmarked) [modafinil]	approximately 13 hours
